Results: paper PMC11873638 (Acta Pharmaceutica Sinica. B, 2024)
Values belong to the compound of their own block, whether it stands above or below them.

Key:
[1] = molecular target: T1, HDB-EtCl O-dechloroethylation (CYP1A1) in human liver microsomes (Homo sapiens, UniProt P04798); assay: Chemical inhibition assay of HDB-EtCl O-dechloroethylation in HLMs; settings: ABT 500 μmol/L, resveratrol 100 μmol/L, others 1-10 μmol/L
T1 sequence (P04798 1-512): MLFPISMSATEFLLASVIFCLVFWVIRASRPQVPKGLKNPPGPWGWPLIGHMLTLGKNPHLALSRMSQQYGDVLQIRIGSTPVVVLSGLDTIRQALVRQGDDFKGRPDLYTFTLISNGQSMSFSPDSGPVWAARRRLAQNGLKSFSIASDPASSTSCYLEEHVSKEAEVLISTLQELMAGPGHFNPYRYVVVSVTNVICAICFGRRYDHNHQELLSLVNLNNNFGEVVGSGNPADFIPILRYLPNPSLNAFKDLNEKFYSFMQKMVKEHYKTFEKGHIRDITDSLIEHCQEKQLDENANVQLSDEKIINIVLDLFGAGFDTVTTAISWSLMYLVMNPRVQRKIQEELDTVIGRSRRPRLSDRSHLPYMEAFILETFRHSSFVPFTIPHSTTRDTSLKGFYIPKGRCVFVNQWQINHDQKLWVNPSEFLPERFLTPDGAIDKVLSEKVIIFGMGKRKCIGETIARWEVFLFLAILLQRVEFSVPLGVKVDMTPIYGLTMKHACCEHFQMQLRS

[2] = tested on: LPS-induced ALI mice; assay: LPS-induced acute lung injury in mice; format: in vivo, mouse
[3] = tested on: DSS-induced ulcerative colitis mice; assay: DSS-induced ulcerative colitis in mice; format: in vivo, mouse
[4] = tested on: Caco2, BEAS-2B, H292, and HepG2 cells; assay: Cytotoxicity assays of probe, metabolite and inhibitor; format: cell-based, human; settings: all tested mammalian cells
[5] = tested on: CYP1A1 in Caco2, BEAS-2B, H292, and HepG2 cells; assay: Functional imaging of CYP1A1 in living cells; format: cell-based, human; settings: 100 μmol/L, 1 h pre-incubation

- inhibition of HDB-EtCl O-dechloroethylation in HLMs [1]: completely blocked
Structure (SMILES): Nn1nnc2ccccc21 [ABT, 1-aminobenzotriazole]

Structure (SMILES): C[C@@H]1C[C@H]2[C@@H]3CCC4=CC(=O)C=C[C@]4(C)[C@@]3(F)[C@@H](O)C[C@]2(C)[C@@]1(O)C(=O)CO [Dex, dexamethasone]
- lung injury scores ([2]; LAC-7 20 and 40 mg/kg, Dex 5 mg/kg): significantly reduce
- Occludin immunofluorescence intensity in lung ([2]; mouse, in vivo): enhanced
- ZO-1 immunofluorescence intensity in lung ([2]; oral administration): significantly increased
- total cell count in BALF ([2]; vs LPS-induced ALI mice): significantly decreased

Structure (SMILES): O=C(O)c1cc(/N=N/c2ccc(S(=O)(=O)Nc3ccccn3)cc2)ccc1O [SASP, salazosulfapyridine]
- elevated IL-1β, TNF-α, IL-6, IFN-γ in intestinal tissues ([3]; ELISA, oral administration): effectively mitigated
- colon histopathological abnormities (H&E) ([3]; LAC-7 20 and 40 mg/kg, SASP 200 mg/kg): largely restored
- shortening of colon length by DSS ([3]; LAC-7 20 and 40 mg/kg, SASP 200 mg/kg, oral): significantly reversed
- expression of tight junction proteins Occludin and ZO-1 in intestine ([3]; immunofluorescence): significantly increased

- blocking of HDB-EtCl red-channel fluorescent signals in cells [5]: completely blocked
- inhibition of HDB-EtCl O-dechloroethylation in HLMs [1]: completely blocked
Structure (SMILES): Oc1ccc(/C=C/c2cc(O)cc(O)c2)cc1 [resveratrol]
- cytotoxicity [4]: weak cytotoxicity
